# Test system: SMMC-7721 cells
# Experiment: JC-1 mitochondrial membrane potential assay
# Format: cell-based, human
# Conditions: 24 h, control 6.47%
# Text: As the most important organelle, mitochondria play key roles not only on supplying metabolic energy in the form of ATP, but also on regulating the signal transmission during the apoptosis of cancer cells.[46] Besides, the mitochondrial dysfunction can be aroused under high ROS exposure, leading to the collapse of mitochondrial membrane potential (ΔΨm), which is a characteristic phenomenon of early apoptosis.[47] In order to further investigate the apoptosis-inducing effect of target compound 6j, mitochondrial membrane potential changes were detected using the fluorescent probe JC-1. As a lipophilic cationic dye, JC-1 can easily pass through the plasma membrane into cells and accumulates in actively respiring mitochondria. In control cells, JC-1 can form aggregates in mitochondrial matrix and present high red fluorescence. However, in apoptotic cells whose mitochondrial potential has collapsed, JC-1 exists in cytosol as a monomer which emits green fluorescence. SMMC-7721 cells treated with different concentrations (0, 0.1, 0.2, 0.5, 1.0 and 2.0 μM) of compound 6j for 24 h were stained with JC-1 and then subjected to flow cytometry.
# The JC-1 mitochondrial membrane potential assay kit (Keygene Biotech., China) was employed to measure mitochondrial depolarization in SMMC-7721 cells. Briefly, cells cultured in six-well plates after indicated treatments were incubated with an equal volume of JC-1 staining solution (5 μg mL^−1) at 37 °C for 20 min and rinsed twice with PBS. Mitochondrial membrane potentials were monitored by determining the relative amounts of dual emissions from mitochondrial JC-1 monomers or aggregates using flow cytometry (Becton-Dickinson FACSCalibur, New York, USA). Mitochondrial depolarization is indicated by an increase in the percentage of cells with low ΔΨm (green fluorescence, lower right quadrant) compared with cells with high ΔΨm (red fluorescence, upper right quadrant).
smiles,measurement,setting,value
"COC(=O)[C@]1(C)CCC[C@]2(C)c3cc(Br)c4nc(-c5ccc6[nH]ccc6c5)[nH]c4c3CCC12 (some centres unmarked) [Compound 6j, Methyl 2′-(1H-indol-5-yl)-12-bromo-13,14-imidazolyl-deisopropyl-dehydroabietate]",percentage of cells with low ΔΨm (lower right quadrant),0.1 μM,11.35%
same,percentage of cells with low ΔΨm (lower right quadrant),0.2 μM,15.66%
same,percentage of cells with low ΔΨm (lower right quadrant),0.5 μM,20.16%
same,percentage of cells with low ΔΨm (lower right quadrant),1.0 μM,31.30%
same,percentage of cells with low ΔΨm (lower right quadrant),2.0 μM,53.12%

# From publication PMC9080489, “Synthesis and biological evaluation of 2-aryl-benzimidazole derivatives of dehydroabietic acid as novel tubulin polymerization inhibitors” (RSC Advances, 2018)
